Test results reported in US20260274814A1, “THIENYL COMPOUNDS FOR THE TREATMENT OF A CENTRAL NERVOUS SYSTEM DISEASE OR DISORDER” (Coreterra Therapeutics, Inc., priority 2023, published 2026).
Counter-ions that a name gives are not always drawn. Like-named read-outs stand apart in the source and are kept apart here.

System: mice
Test: Neuropharmacological Assay (SmartCube): automated behavioral signature of compound-treated mice compared with a database of reference drug classes
Assay type: in vivo
Conditions: for MED / MED (minimal effective dose) / minimal effective dose: i.p., that dose is shown; for minimal effective dose: Mus musculus, ip
Excerpt: Neurosci. 2011 Sep. 9; 5: 103 (doi: 10.3389/fnins.2011.00103) (“Roberds”). As reported in Roberds, because psychiatric diseases generally result from disorders of cell-cell communication or circuitry, intact systems are useful in detecting improvement in disease-relevant endpoints. These endpoints are typically behavioral in nature, often requiring human observation and interpretation. To facilitate testing of multiple compounds for behavioral effects relevant to psychiatric disease, PsychoGenics, Inc. (Tarrytown, NY, “PGI”) developed SmartCube™ an automated system in which behaviors of compound-treated mice are captured by digital video and analyzed with computer algorithms. (D. Brunner et al. Drug Discov. Today 2002, 7:S107-S112). PGI Analytical Systems uses data from SmartCube™ to compare the behavioral signature of a test compound to a database of behavioral signatures obtained using a large set of diverse reference compounds. (The composition of the database as well as validation of the method is further described in Roberds). In this way, the neuropharmacological effects of a test compound can be predicted by similarity to major classes of compounds, such as antipsychotics, anxiolytics and antidepressants.
The SmartCube™ system produces an activity signature indicating the probability that the activity of the test compound at the administered dose matches a given class of neuropharmacological agents. (See, e.g., Roberds, FIGS. 2 and 3). The test compound is simultaneously compared against multiple classes of agents; thus, a separate probability is generated for each behavioral effect measured (e.g., anxiolytic activity, analgesic activity, etc.). In table 2 below, these probabilities are reported for each behavioral effect measured as described in Table 1 below.
Provided compounds were dissolved in a mixture of Pharmasolve™ (N-methyl-2-pyrrolidone), polyethylene glycol and propylene glycol, and were injected i.p. 15 min. before the behavioral test. For each compound, injections were administered at 3 different doses. For each behavioral effect measured, results for the 3.0 mg/kg dose are presented. The potency of many of the compounds in the table was also determined in the SmartCube™ system. Test compounds were routinely examined at dose levels of 0.3, 1, 3 and 10 mg per kg (mpk), although the dose range was increased or decreased, if necessary, to obtain a full dose response curve. A compound's minimal effective dose (MED) is a measure of the compound's potency. The MED was defined as the dose (in mpk) having 45% or more total activity in SmartCube. If only one dose was tested, that dose is shown in the MED column of Table 2 even though the dose is not known to be the MED.

[1] = SmartCube class probability, 3.0 mg/kg i.p., 15 min before test
[2] = SmartCube class probability, 3.0 mg/kg i.p., 15 min before test, hydrochloride, 3 mg/kg
[3] = minimal effective dose: dose having 45% or more total activity in SmartCube, if only one dose tested, hydrochloride
[4] = dose having 45% or more total activity in SmartCube, if only one dose was tested
[5] = probability that activity matches this class of agents, 3.0 mg/kg i.p., 15 min before test
[6] = probability that activity matches this class of agents, 3.0 mg/kg i.p., 15 min before test, hydrochloride, 3 mg/kg
[7] = dose having 45% or more total activity in SmartCube, if only one dose was tested, hydrochloride
[8] = minimal effective dose: dose having 45% or more total activity in SmartCube, if only one dose tested, read-out: MED
[9] = SmartCube probability class, 3.0 mg/kg dose, i.p. 15 min before the behavioral test
[10] = dose having 45% or more total activity in SmartCube, if only one dose was tested, read-out: MED (minimal effective dose)

SMILES	AG [1]	AN [1]	AP [1]	AX [1]	HL [1]	PS [1]	AG [5]	AP [5]	CE [5]	HL [5]	MS [5]	PS [5]	SH [5]	UK [5]	AX [6]	AD [5]	AN [5]	CE [1]	MS [1]	SH [1]	also measured
CNC1CCc2csc(C3CC3)c2C1 (single isomer, unassigned) [Compound 155, 3-cyclopropyl-N-methyl-4,5,6,7-tetrahydro-2-benzothiophen-5-amine hydrochloride]	ND (^ <4%)	ND (^ <4%)	ND (^ <4%)	ND (^ <4%)	ND (^ <4%)	ND (^ <4%)															UK [1]: ND (^ <4%); AD [2]: + (≥4%); CE [2]: + (≥4%); MS [2]: + (≥4%); SH [2]: ++ (≥24%); MED [3]: 0.3 mpk
CNC1CCc2csc(Cl)c2C1 (single isomer, unassigned) [Compound 56, 3-chloro-N-methyl-4,5,6,7-tetrahydro-2-benzothiophen-5-amine hydrochloride]							ND (^ <4%)	++ (≥24%)	ND (^ <4%)	ND (^ <4%)	ND (^ <4%)	ND (^ <4%)	ND (^ <4%)	ND (^ <4%)	++ (≥24%)						MED (minimal effective dose) [4]: 1.0 mpk; AD [6]: ND (^ <4%); AN [6]: + (≥4%)
CNC1CCc2c(csc2C(F)(F)F)C1 (single isomer, unassigned) [Compound 63, N-methyl-1-(trifluoromethyl)-4,5,6,7-tetrahydro-2-benzothiophen-5-amine hydrochloride]							ND (^ <4%)	ND (^ <4%)	ND (^ <4%)	ND (^ <4%)		ND (^ <4%)	ND (^ <4%)		+++ (≥49%)	+ (≥4%)	ND (^ <4%)				MED (minimal effective dose) [7]: 1.0 mpk; MS [6]: + (≥4%); UK [6]: ND (^ <4%)
CC1(N)CCc2c(C(F)(F)F)csc2C1.Cl (single isomer, unassigned) [Compound 241, 6-methyl-3-(trifluoromethyl)-5,7-dihydro-4H-benzothiophen-6-amine hydrochloride]	ND (^ <4%)	ND (^ <4%)	ND (^ <4%)	ND (^ <4%)	ND (^ <4%)	ND (^ <4%)												ND (^ <4%)	ND (^ <4%)	ND (^ <4%)	minimal effective dose [8]: 3 mg/kg; AD [2]: + (≥4%); UK [2]: ++++ (≥74%)
CNC1(C)CCc2sccc2C1 (single isomer, unassigned) [Compound 178, N, 5-dimethyl-6,7-dihydro-4H-benzothiophen-5-amine hydrochloride]	ND (^ <4%)		ND (^ <4%)	ND (^ <4%)	ND (^ <4%)													ND (^ <4%)	ND (^ <4%)	ND (^ <4%)	UK [1]: ND (^ <4%); AD [2]: + (≥4%); AN [2]: ND (^ <4%); PS [2]: ++++ (≥74%); MED [3]: 1 mpk
CNC1CCc2scc(C3CC3)c2C1 (single isomer, unassigned) [Compound 249, 3-cyclopropyl-N-methyl-4,5,6,7-tetrahydrobenzothiophen-5-amine hydrochloride]	ND (^ <4%)	ND (^ <4%)			ND (^ <4%)	ND (^ <4%)												ND (^ <4%)	ND (^ <4%)	ND (^ <4%)	minimal effective dose [8]: 3 mg/kg; AD [1]: ND (^ <4%); AP [2]: ND (^ <4%); AX [2]: ND (^ <4%); UK [2]: ++ (≥24%)
Cc1cc2c(s1)CC(N(C)C)CC2.Cl (single isomer, unassigned) [Compound 35, N,N, 2-trimethyl-4,5,6,7-tetrahydrobenzothiophen-6-amine hydrochloride]														++ (≥24%)		ND (^ <4%)					MED (minimal effective dose) [4]: 10 mpk
CNC1CCc2ccsc2C1.Cl (single isomer, unassigned) [Compound 9, N-methyl-4,5,6,7-tetrahydrobenzothiophen-6-amine hydrochloride]							ND (^ <4%)	++ (≥24%)			ND (^ <4%)			ND (^ <4%)	+ (≥4%)	++ (≥24%)	ND (^ <4%)				MED (minimal effective dose) [7]: 0.1 mpk; CE [6]: + (≥4%); HL [6]: + (≥4%); PS [6]: + (≥4%)
CNC1COc2scc(C)c2C1 (centres unmarked) [Compound 308, N, 5-dimethyl-3,4-dihydro-2H-thieno[2,3-b]pyran-3-amine hydrochloride]																					minimal effective dose (minimal effective dose: dose having 45% or more total activity in SmartCube, if only one dose was tested, read-out: MED): < 3 mg/kg; AD [9]: ND (^ <4%); AG [9]: ND (^ <4%); AN [9]: ND (^ <4%); AP [9]: ++++ (≥74%); AX [9]: ND (^ <4%); CE [9]: ND (^ <4%); HL [9]: ND (^ <4%); MS [9]: ND (^ <4%); PS [9]: ND (^ <4%); SH [9]: ND (^ <4%); UK [9]: ND (^ <4%)
CNC1CCc2sc(C3CC3)cc2C1 (single isomer, unassigned) [Compound 183, 2-cyclopropyl-N-methyl-4,5,6,7-tetrahydrobenzothiophen-5-amine hydrochloride]	ND (^ <4%)	ND (^ <4%)	ND (^ <4%)	ND (^ <4%)	ND (^ <4%)	ND (^ <4%)												ND (^ <4%)	ND (^ <4%)	ND (^ <4%)	minimal effective dose [8]: 3 mg/kg; AD [1]: ND (^ <4%); UK [1]: ++ (≥24%)
CNC1CCc2c(sc(Cl)c2C)C1 (centres unmarked) [Compound 92, 2-chloro-N, 3-dimethyl-4,5,6,7-tetrahydrobenzothiophen-6-amine hydrochloride]							ND (^ <4%)	ND (^ <4%)	ND (^ <4%)	ND (^ <4%)	ND (^ <4%)	ND (^ <4%)	ND (^ <4%)	ND (^ <4%)		++++ (≥74%)	ND (^ <4%)				minimal effective dose [10]: 3 mg/kg; AX [5]: ND (^ <4%)
CNC1COc2cc(F)sc2C1 (centres unmarked) [Compound 130, 2-fluoro-N-methyl-6,7-dihydro-5H-thieno[3,2-b]pyran-6-amine hydrochloride]							ND (^ <4%)	++++ (≥74%)	ND (^ <4%)	ND (^ <4%)	ND (^ <4%)	ND (^ <4%)	ND (^ <4%)	ND (^ <4%)		ND (^ <4%)	ND (^ <4%)				minimal effective dose [10]: < 3 mg/kg; AX [5]: ND (^ <4%)
CNC1CCc2csc(F)c2C1 (single isomer, unassigned) [Compound 73, 3-fluoro-N-methyl-4,5,6,7-tetrahydro-2-benzothiophen-5-amine hydrochloride]							ND (^ <4%)		ND (^ <4%)	ND (^ <4%)	ND (^ <4%)	ND (^ <4%)	ND (^ <4%)	ND (^ <4%)	++++ (≥74%)		ND (^ <4%)				MED (minimal effective dose) [7]: 1 mpk; AD [6]: ND (^ <4%); AP [6]: ND (^ <4%)
